Measured values from patent publication US10945971B2, “Sphingosine kinase type 1 inhibitors and uses thereof” (Enzo Therapeutics, Inc., priority 2008, dated 2021).

What was measured:
[1] = tested on: AML xenograft tumors; details: U.S. Ser. No. 12/387,228; cited from earlier work
[2] = tested on: LN229 cells; experiment: Apoptosis of LN229 cells (PARP cleavage, nuclear condensation, TUNEL); type: cell-based, human
Method: Cells were grown on 3-aminopropyl-triethoxysilane-treated 15 mm glass cover slips in 24 well plates. Following treatments, cells were washed with PBS, fixed with 3% paraformaldehyde for 10 min at room temperature, and blocked in TBST buffer containing 1% BSA. After washing, cells were incubated in the same buffer containing Alexa-conjugated phalloidin for 30 min, followed by 15 min incubation in 10 μg/ml of Hoechst 33342. For TUNEL assays, fixed cells were permeabilized with 0.5% TX-100 for 30 min, washed and incubated in TdT buffer supplemented with 250 μM CoCl2, 20 units TdT (NEB, Ipswich, Mass.) and 1 nM fluorescein-12-dUTP (Roche) for 1 h at 37° C. […]
Cells were plated at 10,000 cells/well in 48-well plates and allowed to attach for 24 h. Cell proliferation was measured at the indicated times with WST-1 and absorbance was measured in a plate reader at 450 nm with background subtraction at 630 nm. Cell death was detected by trypan blue exclusion assays in which the percent of blue dye incorporating cells were determined using a light microscope and a hemacytometer as described (Yacoub et al. Mol Cancer Ther 7:314-329, 2008). Apoptotic cell death was measured by staining cell nuclei with the Hoechst dye bisbenzimide and apoptotic cells were identified by condensed, fragmented nuclear regions as described previously (Sankala et al. Cancer Res 67:10466-10474, 2007). […]

[3] = tested on: JNK; experiment: JNK pathway and p38 MAPK activation, LN229 cells; type: cell-based, human
Method: (§1) Cells were scraped in buffer containing 20 mM Tris-HCl, pH 7.5, 50 mM NaCl, 50 mM NaF, 30 mM Na4P2O7, 20 mM 2-glycerophosphate, 1 mM Na3VO4, 5 mM EDTA, 2 mM EGTA, 0.5% SDS and protease inhibitor cocktail (1:200 dilution) and probe-sonicated. Equal amounts of protein determined with bicinchoninic acid (Pierce, Rockford, Ill.), were resolved by SDS-PAGE and transferred to nitrocellulose membranes. Blots were blocked with 5% non-fat dry milk in Tris-buffered saline containing 0.1% […] (TBST) for 1 h at room temperature, and then incubated with primary antibodies (1:3,000 in 1% BSA) overnight, followed by the appropriate HRP-conjugated secondary antibodies (1:40,000 in 1% BSA). Immunocomplexes were visualized by enhanced chemiluminescence (Pierce).

[4] = tested on: S1P, sphingosine and ceramide levels; experiment: Sphingolipid metabolite levels by LC-ESI-MS/MS after SK1-I; type: cell-based
From the text: Lipids were extracted and phosphorylated and unphosphorylated sphingoid bases, individual ceramide acyl chain species, as well as SK1-I and its metabolites were quantified by liquid chromatography, electrospray ionization-tandem mass spectrometry (LC-ESI-MS/MS) as described previously (Merrill et al. Methods 36:207-224, 2005).

[5] = tested on: Akt; experiment: Western blotting of Akt phosphorylation, LN229 cells; type: cell-based, human; details: LN229, serum, LPA or EGF stimulated, 20 minutes treatment
Method: as §1

[6] = tested on: U373 cells; experiment: PMA-stimulated F-actin reorganization and lamellipodia formation (phalloidin staining, confocal); type: cell-based, human
Method: Cells were grown on 3-aminopropyl-triethoxysilane-treated 15 mm glass cover slips in 24 well plates. Following treatments, cells were washed with PBS, fixed with 3% paraformaldehyde for 10 min at room temperature, and blocked in TBST buffer containing 1% BSA. After washing, cells were incubated in the same buffer containing Alexa-conjugated phalloidin for 30 min, followed by 15 min incubation in 10 μg/ml of Hoechst 33342. For TUNEL assays, fixed cells were permeabilized with 0.5% TX-100 for 30 min, washed and incubated in TdT buffer supplemented with 250 μM CoCl2, 20 units TdT (NEB, Ipswich, Mass.) and 1 nM fluorescein-12-dUTP (Roche) for 1 h at 37° C. Coverslips were washed with TBST, rinsed in water, air dried and mounted on glass slides with Cytoseal 60 polymer (Richard-Allan Scientific, Kalamazoo, Mich.). Images were collected on an LSM 510 laser confocal microscope (Zeiss, Thornwood, N.Y.) with a 100× oil immersion objective.

[7] = tested on: EGFR, Gab1; experiment: EGF-induced tyrosine phosphorylation of EGFR and Gab1; type: cell-based
Method: as §1

[8] = tested on: p70S6K; experiment: Western blotting of p70S6K phosphorylation, LN229 cells; type: cell-based, human
Method: as §1

[9] = tested on: LN229 cells; experiment: Colony formation (clonogenic) assay, LN229 cells; type: cell-based, human
Method: Cells were plated at a density of 1000 cells/well in a 12-well plate in DMEM containing 5% serum. After 8 h, SK1-I was added and 2 h later, the media was changed. After 10 days, cells were fixed in 4% paraformaldehyde and stained with crystal violet (0.05%). Colonies larger then 0.5 mm in diameter were counted.

[10] = tested on: U373 cells; experiment: Boyden chamber chemotaxis, U373 cells; type: cell-based, human
Method: Boyden chamber invasion assays were carried out essentially as described (Shida et al. Cancer Res 68:6569-6577, 2008).

[11] = tested on: intracranial LN229-H2B-EGFP tumors; experiment: Intracranial LN229 xenograft tumors in nu/nu mice; type: in vivo
Method: Adult female NCI nu/nu mice were anesthetized and LN229-H2B-EGFP cells (2.5×10^4 in 1 μl PBS) were stereotactically implanted in the putamen region (1 mm anterior and 2.5 mm lateral to the Bregma at the depth of 3.5 mm at a rate of 0.1 μl/min). Mice were monitored for recovery until complete wakening. 20 days after implantation, mice were injected i.p. with SK1-I (20 mg/kg in PBS) every other day. Mice were observed daily following tumor implantation and were euthanized on reaching a moribund state.
Experiments were repeated at least three times with consistent results. For each experiment, data from triplicate samples were expressed as means±S.D. Statistics were performed by single factor ANOVA, and p<0.05 was considered significant. The Kaplan-Meier estimator was used to generate the survival curves and to estimate the median survival values. Differences between survival curves were compared using a log-rank test.

[12] = tested on: ERK1/2; experiment: Western blotting of ERK1/2 phosphorylation, LN229 cells; type: cell-based, human; details: LN229, serum, LPA, EGF, short-term
Method: as §1

Structure (SMILES): CCCCCc1ccc(/C=C/[C@H](O)[C@@H](CO)NC)cc1 [SK1-I, (2R,3S,4E)-N-methyl-5-(4′-pentylphenyl)-2-aminopent-4-ene-1,3-diol]
- tumor growth [1]: inhibited growth
- apoptosis (PARP cleavage, fragmented and condensed nuclei, TUNEL) [2]: induced apoptosis
- activation of JNK ([3]; LN229): delayed activation of JNK
- phosphorylation of c-Jun (Ser63/73) and ATF-2 (Thr71) ([3]; LN229, after addition of SK1-I): enhanced phosphorylation
- p38 MAPK ([3]; LN229, data not shown): without affecting
- ceramide levels, particularly C16-ceramide ([4]; after 24 h of treatment): increased markedly
- S1P levels ([4]; within 20 min after addition): significant reduction
- ceramide levels ([4]; within 1 h after addition): without major changes
- decrease in S1P levels ([4]; within 1 h after addition): 70%
- sphingosine levels ([4]; within 1 h after addition): increase
- phosphorylation of Akt at Thr308 and Ser473 [5]: markedly suppressed
- PMA-stimulated F-actin reorganization at the leading edge and formation of lamellipodia [6]: dramatically reduced
- EGF-induced tyrosine phosphorylation of EGFR or of Gab1 [7]: did not affect
- activation of p70S6K (Thr389) [8]: reduced activation
- long-term survival in clonogenic assays [9]: markedly suppressed
- chemotaxis toward serum or EGF [10]: reduced
- symptoms of tumor burden ([11]; 20 mg/kg i.p. every other day from day 20, when vehicle mice were moribund (day 43-49)): None of the SK1-I treated mice showed any symptoms
- tumors on T2W MRI ([11]; day 48): no tumors were evident
- tumor on gadolinium enhanced MRI ([11]; day 48, site of injection): small tumor
- Kaplan-Meier survival ([11]; i.p. administration, vs vehicle control): significant survival benefit
- invading GFP-labeled LN229 cells in intracranial tumor sections ([11]; vs vehicle treated animals): significantly fewer invading cells
- stimulated ERK1/2 phosphorylation at Thr202/Tyr204 [12]: did not significantly affect
